Publication PMC9467556, “Identification of novel pyrrolopyrimidine and pyrrolopyridine derivatives as potent ENPP1 inhibitors” (Journal of Enzyme Inhibition and Medicinal Chemistry, 2022)
Where a name gives a salt, the structure may show the parent alone.

How the values were obtained:
CYP2C19 = CYP2C19 (Homo sapiens, UniProt P33261); assay: CYP inhibition profile; format: in vitro ADME; settings: compound 10 μM
Source text: Table 3. CYP inhibition profile. | column: % inhibition / CYP2C19

[1] = system: ISRE-mediated reporter gene induction in THP-1 cells; assay: ISRE/IRF luciferase reporter assay in THP-1 dual cells with cGAMP; settings: co-treatment with cGAMP (1 μg/mL), 24 h
CYP2C9 = CYP2C9 (Homo sapiens, UniProt P11712); assay: CYP inhibition profile; format: in vitro ADME; settings: compound 10 μM
Sequence of CYP2C9 (P11712 whole entry): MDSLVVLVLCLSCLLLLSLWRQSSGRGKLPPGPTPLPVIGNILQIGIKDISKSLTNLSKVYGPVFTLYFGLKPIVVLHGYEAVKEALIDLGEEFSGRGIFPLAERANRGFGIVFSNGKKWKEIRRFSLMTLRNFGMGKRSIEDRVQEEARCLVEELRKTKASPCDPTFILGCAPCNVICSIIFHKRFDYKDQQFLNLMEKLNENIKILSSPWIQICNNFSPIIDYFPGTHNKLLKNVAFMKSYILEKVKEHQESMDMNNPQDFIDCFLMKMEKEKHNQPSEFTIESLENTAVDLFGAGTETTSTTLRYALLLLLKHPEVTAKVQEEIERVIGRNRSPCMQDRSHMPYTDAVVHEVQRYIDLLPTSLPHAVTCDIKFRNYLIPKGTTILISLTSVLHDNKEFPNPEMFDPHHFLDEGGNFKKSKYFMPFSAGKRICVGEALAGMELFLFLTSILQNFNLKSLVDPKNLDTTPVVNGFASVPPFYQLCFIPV
Source text: Table 3. CYP inhibition profile. | column: % inhibition / CYP2C9

CYP2D6 = CYP2D6 (Homo sapiens, UniProt P10635); assay: CYP inhibition profile; format: in vitro ADME; settings: compound 10 μM
Sequence of CYP2D6 (P10635 whole entry): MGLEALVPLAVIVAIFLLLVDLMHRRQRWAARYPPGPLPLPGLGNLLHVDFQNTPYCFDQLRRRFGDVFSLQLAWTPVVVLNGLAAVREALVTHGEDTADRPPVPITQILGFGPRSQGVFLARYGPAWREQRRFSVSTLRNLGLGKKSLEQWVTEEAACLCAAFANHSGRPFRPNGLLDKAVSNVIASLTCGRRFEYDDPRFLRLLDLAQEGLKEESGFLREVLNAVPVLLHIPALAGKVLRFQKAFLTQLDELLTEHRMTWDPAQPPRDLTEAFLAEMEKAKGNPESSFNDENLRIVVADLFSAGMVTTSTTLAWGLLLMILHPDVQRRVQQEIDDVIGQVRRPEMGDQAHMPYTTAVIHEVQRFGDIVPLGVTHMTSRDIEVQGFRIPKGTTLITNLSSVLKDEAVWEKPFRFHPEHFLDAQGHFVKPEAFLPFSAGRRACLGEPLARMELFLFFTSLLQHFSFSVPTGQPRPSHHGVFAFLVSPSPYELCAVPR
Source text: Table 3. CYP inhibition profile. | column: % inhibition / CYP2D6

[2] = body weight in 4T1 syngeneic mouse tumour model; format: in vivo, BALB/c mice; settings: 40 mg/kg orally once daily, two weeks, 4T1 tumour-bearing mice
Protocol: Thus, we evaluated the anti-cancer efficacy in the 4T1 syngeneic mouse tumour model to test the therapeutic potential of 18p. We postulated the marginal amount of cGAMP released by tumour could initiate the synergy effect of 18p, then administrated the compound by single-treatment[5]. After 4T1 tumour cells were implanted and grown in the flank of mice, 18p was orally administered (40 mg/kg) once daily and monitored the tumour volume and body weight of each mouse.
Figure 7. 4 × 10^5 of 4T1 cells were subcutaneously inoculated into right side flank of BLAB/c mice (n = 6). Mice were orally administrated by 18p (40 mg/kg) or vehicle by every day. (a) Tumour growth curve of 18p or vehicle. X-axis indicates days after treatment. (b) Tumour growth (%) on day 14. (c) Body weight of 18p or vehicle. X-axis indicates days after treatment. Statistics for tumour volume and tumour growth were analysed by 2way ANOVA and student t-test. *p < 0.05. **p < 0.01. Graphs are depicted by mean and SD.
The study for murine 4T1 […] was approved by the Institutional Animal Care and Use Committee (IACUC) of the Korea Institute of Science and Technology (KIST-2021–04-048). Female BALB/c mice were 8 weeks obtained from DBL (Korea). […] Tumour volume was calculated by following formula: Tumour volume (mm^3) = 0.5 × [length, (mm) × width, (mm)2].

[3] = system: phosphorylation of STAT1 in THP-1 cells; assay: western blot of STING downstream signalling; format: cell-based, human; settings: cGAMP (1 μg/mL) then 18p, 6 h
Protocol: (§1) To evaluate whether 18p induced desired immune response via activation of STING pathway, we investigated the activation of downstream effector proteins, IRF3 and STAT1 that were known as major regulatory proteins of STING and IFN-β, respectively.
(§2) Figure 6. Western blot analysis for STING downstream signalling pathway. THP-1 cells were treated with cGAMP (1 μg/mL) first, and then treated with either DMSO or 18p at indicated concentration for 6 h. Tubulin was used as a loading control.
(§3) Cells were washed by PBS and harvested with RIPA buffer (Bioseasang). After centrifugation with 20,000 × g for 20 min at 4 °C. Cell lysates were separated by SDS-polyacrylamide gel electrophoresis and transferred on PVDF membranes through the Trans-Blot Turbo Transfer System (Bio-Rad). The membranes were blocked in 5% BSA in TBST for 1 h at room temperature and followed by incubation with primary antibody solution for overnight. […] After washing with TBST, all antibodies were detected by anti-rabbit-HRP-linked secondary antibody (Cell signalling/no. 7074, 1:3000). β-Tubulin was used as a loading control for the amount of total protein. Luminescence signal was detected using ECL reagent and immunoreactive bands were captured with the ChemiDoc imaging systems (Bio-Rad).

[4] = system: phosphorylation of IRF3 in THP-1 cells; assay: western blot of STING downstream signalling; format: cell-based, human; settings: cGAMP (1 μg/mL) then 18p, 6 h
Protocol: as §1, §2, §3

[5] = liver microsomal stability; format: in vitro ADME, mouse; settings: % remaining during 30 min at 1 µM
[6] = liver microsomal stability; format: in vitro ADME, rat; settings: % remaining during 30 min at 1 µM
CYP1A2 = target: T1, CYP1A2 (Homo sapiens, UniProt P05177); assay: CYP inhibition profile; format: in vitro ADME; settings: compound 10 μM
T1 sequence (P05177 1-516): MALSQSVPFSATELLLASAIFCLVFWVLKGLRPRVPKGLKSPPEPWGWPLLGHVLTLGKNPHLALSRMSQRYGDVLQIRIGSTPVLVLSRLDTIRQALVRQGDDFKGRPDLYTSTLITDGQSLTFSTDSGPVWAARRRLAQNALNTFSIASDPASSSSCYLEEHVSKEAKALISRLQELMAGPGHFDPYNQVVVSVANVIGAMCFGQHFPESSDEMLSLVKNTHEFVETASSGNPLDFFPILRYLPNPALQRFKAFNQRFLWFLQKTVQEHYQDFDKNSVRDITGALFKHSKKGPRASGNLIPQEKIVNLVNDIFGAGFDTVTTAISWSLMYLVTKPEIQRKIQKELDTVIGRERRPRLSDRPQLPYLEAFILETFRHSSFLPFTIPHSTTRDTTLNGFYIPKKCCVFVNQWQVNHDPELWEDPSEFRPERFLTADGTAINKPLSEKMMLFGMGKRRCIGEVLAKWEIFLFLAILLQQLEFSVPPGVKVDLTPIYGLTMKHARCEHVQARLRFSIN
Source text: Table 3. CYP inhibition profile. | column: % inhibition / CYP1A2

[7] = pharmacokinetics in BALB/c mice; format: in vivo
[8] = system: IP-10 secretion in THP-1 cells; assay: IP-10 cytokine secretion by ELISA; settings: co-treatment with cGAMP, 8 h
Protocol: Extracellular secretion of IFN-β and IP-10 was measured by enzyme-linked immunosorbent assay (ELISA).
THP-1 cells were seeded in 96 well plate and treated with the compounds for 8 h incubation. 100 μL of cell culture supernatant was harvested and analysed using manufactural protocols.

[9] = liver microsomal stability; format: in vitro ADME, human; settings: % remaining during 30 min at 1 µM

Sequence of CYP2C19 (P33261 whole entry): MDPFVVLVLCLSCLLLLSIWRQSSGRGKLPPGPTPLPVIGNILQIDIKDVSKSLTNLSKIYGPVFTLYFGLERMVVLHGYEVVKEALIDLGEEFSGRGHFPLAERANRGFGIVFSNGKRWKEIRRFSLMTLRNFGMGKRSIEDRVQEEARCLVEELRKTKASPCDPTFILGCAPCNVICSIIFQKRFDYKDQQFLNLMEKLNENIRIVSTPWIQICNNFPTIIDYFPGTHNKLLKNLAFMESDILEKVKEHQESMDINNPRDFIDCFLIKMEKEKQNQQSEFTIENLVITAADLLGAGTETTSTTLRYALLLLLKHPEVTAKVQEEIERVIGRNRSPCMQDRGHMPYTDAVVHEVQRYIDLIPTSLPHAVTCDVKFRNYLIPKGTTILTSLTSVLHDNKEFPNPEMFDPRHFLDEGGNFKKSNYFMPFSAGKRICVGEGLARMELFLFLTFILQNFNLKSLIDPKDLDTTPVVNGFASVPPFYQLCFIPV

% inhibition CYP2C19 (CYP2C19): 10.3%
% inhibition CYP2C9 (CYP2C9): 0.0%
% inhibition CYP2D6 (CYP2D6): 0.5%
Microsomal stability (%) Mouse [5]: 83%
Microsomal stability (%) Rat [6]: 96%
% inhibition CYP1A2 (CYP1A2): 12.0%
CI ([7]; IV, 1 mg/kg): 125 mL/min/kg
AUC ([7]; mouse, plasma, IV, 1 mg/kg): 126 ng·h/mL
AUC(0-t) ([7]; mouse, plasma, IV, 1 mg/kg): 125 ng·h/mL
Cmax ([7]; mouse, plasma, IV, 1 mg/kg): 303 ng/mL
Tmax ([7]; mouse, plasma, IV, 1 mg/kg): 4.98 min
half-life ([7]; mouse, plasma, IV, 1 mg/kg): 15 min
Vd ([7]; mouse, plasma, IV, 1 mg/kg, read-out: Vss): 2.3 L/kg
bioavailability ([7]; mouse, plasma, PO 10 mg/kg vs IV 1 mg/kg): > 100%
AUC ([7]; mouse, plasma, PO, 10 mg/kg): 1700 ng·h/mL
AUC(0-t) ([7]; mouse, plasma, PO, 10 mg/kg): 1690 ng·h/mL
Cmax ([7]; mouse, plasma, PO, 10 mg/kg): 1550 ng/mL
Tmax ([7]; mouse, plasma, PO, 10 mg/kg): 30 min
half-life ([7]; mouse, plasma, PO, 10 mg/kg): 93.6 min
Microsomal stability (%) Human [9]: 93%
SMILES: CC1(CNS(N)(=O)=O)CCN(c2ncnc3[nH]ccc23)CC1 [18p, N-((4-Methyl-1-(7H-pyrrolo[2,3-d]pyrimidin-4-yl)piperidin-4-yl)methyl)methanesulfamide hydrochloride]
cGAMP-induced ISRE activation (luciferase signal) [1]: clearly increased the cGAMP-induced ISRE activation in dose-dependent manner
body weight [2]: no weight loss
phosphorylation of STAT1 [3]: increased phosphorylation of IRF3 and STAT1 was observed in dose-dependent manner
phosphorylation of IRF3 [4]: increased phosphorylation of IRF3 and STAT1 was observed in dose-dependent manner
IP-10 cytokine secretion [8]: secreted more cytokine than with cGAMP alone
